Values belong to the compound of their own block, whether it stands above or below them. The source made the active and inactive calls. The rule behind the calls is not given here.
How the values were obtained:
[1] = biological target: T1, Programmed cell death protein 1/Programmed cell death 1 ligand 1 (Homo sapiens, UniProt Q15116+Q9NZQ7); assay: Inhibition of PD-1/PD-L1 interaction (unknown origin) by HTRF assay; format: protein-complex assay
[2] = Half life in rat at 1 mg/kg, iv; format: ADME, organism-based; conditions: in vivo
[3] = Observed volume of distribution at steady state in rat at 1 mg/kg, iv; format: ADME, organism-based; conditions: in vivo, read-out: Vdss
[4] = AUClast in rat at 1 mg/kg, iv; format: ADME, organism-based; parameters: time 0 - last, route intravenous, dose 1 mg/kg; conditions: in vivo
[5] = Observed clearance in rat at 1 mg/kg, iv; format: ADME, organism-based; conditions: in vivo
[6] = Cmax in rat at 3 mg/kg, po; format: ADME, organism-based; parameters: route oral, dose 3 mg/kg; conditions: in vivo
[7] = biological target: T1, Programmed cell death protein 1/Programmed cell death 1 ligand 1; assay: Inhibition of PD-1/PD-L1 interaction in human PBMCs cocultured with H1299 cells assessed as increase in INFgamma expression at 0.1 uM incubated for 72 hrs in presence of alphaCD3/alphaCD28 by ELISA; format: cell-based; conditions: PBMC
[8] = AUClast in rat at 3 mg/kg, po; format: ADME, organism-based; parameters: time 0 - last, route oral, dose 3 mg/kg; conditions: in vivo
[9] = Tmax in rat at 3 mg/kg, po; format: ADME, organism-based; conditions: in vivo
[10] = Antitumor activity against […] Hepa1-6 cells xenografted in C57BL/6 mouse syngeneic model assessed as tumor growth inhibition at 1 mg/kg, IM administered every other day and measured three times per week; format: functional; conditions: Hepa1-6, im, read-out: TGI
[11] = Microsomal stability in mouse assessed as clearance; format: ADME; conditions: microsomes
[12] = test system: Hepa1-6; assay: Antitumor activity against […] Hepa1-6 cells xenografted in C57BL/6 mouse model assessed as increase in infiltration of GrzB+ CD8+ T-cells in tumor by flow cytometry analysis; format: functional, cell-based
[13] = biological target: T2, Programmed cell death protein 1/Programmed cell death 1 ligand 1 (Mus musculus) (UniProt Q9EP73+Q02242); assay: Inhibition of PD1/PDL1 protein-protein interaction in mouse CD8-positive T cells cocultured with Hepa1-6 cells assessed as increase in ratio of IFNgamma+ GrzB+ CD8+ T cells at 0.75 to 3 uM incubated for 48 hrs in presence of alphaCD3/alphaCD28 and IL-2 stimulation by flow cytometry analysis; format: cell-based; conditions: dose 0.75-3 µM
[14] = biological target: T2, Programmed cell death protein 1/Programmed cell death 1 ligand 1 (Mus musculus); assay: Inhibition of PD1/PDL1 protein-protein interaction in mouse CD8-positive T cells cocultured with Hepa1-6 cells assessed as increase in CD107a expression in CD8+ T cells incubated for 5 hrs in presence of alphaCD3/alphaCD28 and IL-2 stimulation by flow cytometry analysis; format: cell-based; conditions: dose 0.75-3 µM
[15] = test system: Hepa1-6; assay: Antitumor activity against […] Hepa1-6 cells xenografted in C57BL/6 mouse model assessed as increase in infiltration of IFNgamma+ GrzB+ CD8+ T-cells in tumor by flow cytometry analysis; format: functional, cell-based
[16] = test system: Hepa1-6; assay: Antitumor activity against […] Hepa1-6 cells xenografted in C57BL/6 […] mouse model assessed as tumor growth inhibition at 1 mg/kg, IM administered every other day and measured three times per week; format: functional, organism-based
[17] = biological target: T1, Programmed cell death protein 1/Programmed cell death 1 ligand 1; assay: Inhibition of PD-1/PD-L1 interaction in human Jurkat T cells expressing PD-1 cocultured with CHO cells expressing PD-Ll/TCR assessed as activation of Jurkat cells by luciferase reporter gene assay; format: cell-based
[18] = biological target: T2, Programmed cell death protein 1/Programmed cell death 1 ligand 1 (Mus musculus); assay: Inhibition of PD1/PDL1 protein-protein interaction in mouse CD8-positive T cells cocultured with Hepa1-6 cells assessed as increase in ratio of IFNgamma+ CD8+ T cells at 0.75 to 3 uM incubated for 48 hrs in presence of alphaCD3/alphaCD28 and IL-2 stimulation by flow cytometry analysis; format: cell-based; conditions: dose 0.75-3 µM
[19] = biological target: T2, Programmed cell death protein 1/Programmed cell death 1 ligand 1 (Mus musculus); assay: Inhibition of PD1/PDL1 protein-protein interaction in mouse CD8-positive T cells cocultured with Hepa1-6 cells assessed as increase in ratio of GrzB+ CD8+ T cells at 0.75 to 3 uM incubated for 48 hrs in presence of alphaCD3/alphaCD28 and IL-2 stimulation by flow cytometry analysis; format: cell-based; conditions: dose 0.75-3 µM
[20] = biological target: T2, Programmed cell death protein 1/Programmed cell death 1 ligand 1 (Mus musculus); assay: Inhibition of PD1/PDL1 protein-protein interaction in mouse CD8-positive T cells cocultured with Hepa1-6 cells assessed as increase in IFNgamma secretion incubated for 48 hrs in presence of alphaCD3/alphaCD28 and IL-2 stimulation by ELISA; format: cell-based; conditions: dose 0.75-3 µM
[21] = Microsomal stability in mouse assessed as half life; format: ADME; conditions: microsomes
[22] = test system: Hepa1-6; assay: Antitumor activity against […] Hepa1-6 cells xenografted in C57BL/6 mouse model assessed as increase in infiltration of IFNgamma+ CD8+ T-cells in tumor by flow cytometry analysis; format: functional, cell-based

T1 sequence (Q15116 whole entry): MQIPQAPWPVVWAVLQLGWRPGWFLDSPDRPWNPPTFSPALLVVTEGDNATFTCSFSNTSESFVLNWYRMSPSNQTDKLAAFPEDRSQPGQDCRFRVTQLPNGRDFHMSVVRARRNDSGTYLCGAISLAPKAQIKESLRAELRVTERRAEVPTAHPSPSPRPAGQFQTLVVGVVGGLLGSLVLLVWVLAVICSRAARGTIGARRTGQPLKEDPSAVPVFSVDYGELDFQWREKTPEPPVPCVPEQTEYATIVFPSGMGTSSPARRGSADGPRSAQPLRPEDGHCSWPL
T1 sequence (Q9NZQ7 whole entry): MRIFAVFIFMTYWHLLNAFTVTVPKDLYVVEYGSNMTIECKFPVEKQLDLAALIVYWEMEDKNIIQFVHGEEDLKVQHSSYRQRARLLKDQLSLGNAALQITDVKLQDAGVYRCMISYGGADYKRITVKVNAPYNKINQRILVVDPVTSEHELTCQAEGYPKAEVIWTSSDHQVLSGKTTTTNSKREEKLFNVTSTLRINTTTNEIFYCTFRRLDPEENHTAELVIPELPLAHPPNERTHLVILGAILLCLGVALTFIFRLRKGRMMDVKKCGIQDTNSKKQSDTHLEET

Compound: Cc1c(-c2ccc3c(c2)OCCO3)cccc1C(F)(F)Oc1cc(OCc2cccc3nonc23)c(CNC(CO)(CO)CO)cc1Cl
IC50 [1]: 7.05 nM

Compound: Cc1cc(OC(F)(F)c2cccc(-c3ccc4c(c3)OCCO4)c2C)cc(OCc2cccc(C#N)c2)c1CN[C@H](CO)C(=O)O
IC50 [1]: 31.9 nM

half-life [2]: 42.6 min
Vd [3]: 5.31 L/kg
AUC(0-t) [4]: 117 ng·h/mL
clearance [5]: 143 mL/min/kg
Cmax [6]: 0.698 ng/mL
AUC(0-t) [8]: 0.701 ng·h/mL
Tmax [9]: 2.83 h
Compound: Cc1c(-c2ccc3c(c2)OCCO3)cccc1C(F)(F)Oc1cc(OCc2ccnc(C#N)c2)c(CN2CCCC[C@H]2C(=O)O)cc1Cl
IC50 [1]: 2.99 nM
inhibition [7]: Active

half-life [2]: 290 min
microsomal CLint [11]: 46.1 µL/min/mg
Vd [3]: 3.92 L/kg
AUC(0-t) [4]: 464 ng·h/mL
clearance [5]: 40 mL/min/kg
half-life [21]: 75.2 min
Compound: Cc1c(-c2ccc3c(c2)OCCO3)cccc1C(F)(F)Oc1cc(OCc2ccnc(C#N)c2)c(CN[C@@H]2C(O)O[C@H](CO)[C@@H](O)[C@@H]2O)cc1Cl (some centres not stated)
IC50 [1]: 10.2 nM
inhibition in vivo at 1 mg/kg [10]: 53.1%
Activity [12]: Active
inhibition [13]: Active
inhibition [14]: Dose-Dependent Effect
Activity [15]: Active
Activity [16]: Active
IC50 [17]: 3.16 µM
inhibition [18]: Active
inhibition [19]: Active
inhibition [7]: Active
inhibition [20]: Dose-Dependent Effect
Activity [22]: Active

Compound: Cc1cc(OC(F)(F)c2cccc(-c3ccc4c(c3)OCCO4)c2C)cc(OCc2cccc(C#N)c2)c1CN[C@@H](C(=O)O)[C@H](C)O
IC50 [1]: 54.7 nM

Compound: Cc1c(-c2ccc3c(c2)OCCO3)cccc1C(F)(F)Oc1cc(OCc2ccnc(C#N)c2)c(CN2CCCC[C@H]2C(=O)OCC(F)(F)F)cc1Cl
IC50 [1]: > 1000 nM

Compound: CC(=O)OCOC(=O)[C@@H]1CCCCN1Cc1cc(Cl)c(OC(F)(F)c2cccc(-c3ccc4c(c3)OCCO4)c2C)cc1OCc1ccnc(C#N)c1
IC50 [1]: 28.8 nM

Compound: Cc1c(-c2ccc3c(c2)OCCO3)cccc1C(F)(F)Oc1cc(OCc2ccnc(C#N)c2)c(CN2CCCC[C@H]2C(=O)N[C@@H]2C(O)O[C@H](CO)[C@@H](O)[C@@H]2O)cc1Cl (some centres not stated)
IC50 [1]: 28.8 nM

Compound: CON(C)C(=O)[C@@H]1CCCCN1Cc1cc(Cl)c(OC(F)(F)c2cccc(-c3ccc4c(c3)OCCO4)c2C)cc1OCc1ccnc(C#N)c1
IC50 [1]: > 1000 nM

Compound: Cc1cc(OC(F)(F)c2cccc(-c3ccc4c(c3)OCCO4)c2C)cc(OCc2cccc(C#N)c2)c1CNC(CO)(CO)CO
IC50 [1]: 30.5 nM

Compound: Cc1c(-c2ccc3c(c2)OCCO3)cccc1C(F)(F)Oc1cc(OCc2ccnc(C#N)c2)c(CNC(CO)(CO)CO)cc1Cl
IC50 [1]: 6.32 nM

half-life [2]: 188 min
Vd [3]: 18 L/kg
AUC(0-t) [4]: 141 ng·h/mL
clearance [5]: 131 mL/min/kg
Compound: Cc1c(-c2ccc3c(c2)OCCO3)cccc1C(F)(F)Oc1cc(OCc2ccnc(C#N)c2)c(CN[C@@H](CO)[C@@H](O)[C@@H](O)[C@H](O)CO)cc1Cl
IC50 [1]: 7.1 nM
inhibition [7]: Active

half-life [2]: 79.2 min
Vd [3]: 4.18 L/kg
AUC(0-t) [4]: 188 ng·h/mL
clearance [5]: 89 mL/min/kg
Cmax [6]: 4.82 ng/mL
AUC(0-t) [8]: 2.83 ng·h/mL
Tmax [9]: 0.33 h
Compound: Cc1c(-c2ccc3c(c2)OCCO3)cccc1C(F)(F)Oc1cc(OCc2cncc(C#N)c2)c(CNC(CO)(CO)CO)cc1Cl
IC50 [1]: 5.68 nM
inhibition [7]: Active

half-life [2]: 28.2 min
microsomal CLint [11]: 52.5 µL/min/mg
Vd [3]: 1.33 L/kg
AUC(0-t) [4]: 142 ng·h/mL
clearance [5]: 124 mL/min/kg
half-life [21]: 66 min
Compound: Cc1cc(OCc2cccc(-c3ccc4c(c3)OCCO4)c2C)cc(OCc2cccc(C#N)c2)c1CN[C@H](CO)C(=O)O
IC50 [1]: 48.2 nM

Compound: CC(=O)OCCOC(=O)[C@@H]1CCCCN1Cc1cc(Cl)c(OC(F)(F)c2cccc(-c3ccc4c(c3)OCCO4)c2C)cc1OCc1ccnc(C#N)c1
IC50 [1]: > 1000 nM

Compound: Cc1c(-c2ccc3c(c2)OCCO3)cccc1C(F)(F)Oc1cc(OCc2cccc(C#N)c2)c(CNC(C)(CO)CO)cc1Cl
IC50 [1]: 5.93 nM

Compound: Cc1cc(OC(F)(F)c2cccc(-c3ccc4c(c3)OCCO4)c2C)cc(OCc2cccc(C#N)c2)c1CNC(C)(CO)CO
IC50 [1]: 16.3 nM

From ChEMBL document CHEMBL4840360, “Design, Synthesis, and Pharmacological Evaluation of Biaryl-Containing PD-1/PD-L1 Interaction Inhibitors Bearing a Unique Difluoromethyleneoxy Linkage” (J Med Chem, 2021)
